From article PMC12750888, “Design, synthesis, and anti-Toxoplasma gondii evaluation of β-carboline derivatives” (Parasites & Vectors, 2025)

Legend:
Vero cells = assay: Cell viability assay (CCK-8) on Vero cells; format: cell-based, African green monkey; conditions: 24 h; for Cytotoxicity: CCK-8, tested up to 30 µM; for inhibition at 30 µM: Chlorocebus sabaeus, CCK-8, read-out: Inhibition rate of Vero cell at 30 μM
Method: African green monkey kidney (Vero) cells were cultured in Dulbecco’s modified Eagle’s medium (DMEM) supplemented with 100 U/mL penicillin, 100 μg/mL streptomycin, 1% nonessential amino acids (NEAAs), 1% GlutaMAX and 10% fetal bovine serum (FBS) at 37 °C in an atmosphere of 5% CO2. […] DMEM without a drug was used as a control. After 24 h of treatment, Cell Counting Kit-8 (CCK-8, CA1210, Solarbio) was used to determine cell viability at 450 nm via a Multiskan GO instrument.

T. gondii RH tachyzoites = assay: Screening for anti-T. gondii activity in vitro (plaque and qPCR assays); format: cell-based, Toxoplasma gondii; conditions: for inhibition of growth at 30 µM: Toxoplasma gondii, Vero, 24 h, RH tachyzoites in Vero cells, plaque and qPCR assays
Method: The anti-T. gondii activity of compounds NBZ001‒037 was examined via RT-PCR. Confluent Vero cells in 6-well plates were infected with 2 × 10^5 T. gondii RH tachyzoites per well, incubated for 6 h, and then washed twice with PBS to remove extracellular tachyzoites. The cell monolayers were incubated with DMEM (1% FBS) containing various concentrations of NBZ001‒037 for 24 h. Total genomic DNA from each sample was isolated with the DNAiso reagent (Takara), and the levels of the 529-bp repeat element of T. gondii were measured by qPCR. A plaque assay was used to evaluate the activity of the compounds. The detailed experimental procedures were described in previous studies.

[1] = tested on: T. gondii RH strain tachyzoites; assay: In vitro anti-invasion assay (qPCR; RH-GFP fluorescence microscopy); format: cell-based, Toxoplasma gondii; conditions: 0.4 μM, RH strain, qPCR
Method: Vero cells were seeded onto 6-well plates and cultured with DMEM supplemented with 10% FBS to obtain cell monolayers. The medium was replaced with fresh DMEM (1% FBS) containing NBZ023 or NBZ035 (0.24–30 μM), pyrimethamine (0.4 μM) or no drugs (as a control), and tachyzoites (2 × 10^6 per well) were then inoculated into the confluent Vero cell monolayers. At 2 h after infection, the cell monolayers were washed twice with PBS to remove extracellular tachyzoites and then total genomic DNA from the cell samples was isolated with the DNAiso reagent (Takara). The anti-invasion capabilities of NBZ023 and NBZ035 were determined by qPCR. The T. gondii RH strain with green fluorescence was seeded as described above. After infection, the cells were incubated for 36 h to fully observe the infection status of the parasites via fluorescence microscopy.

SMILES	Cytotoxicity (Vero cells) [µM]	inhibition at 30 µM (Vero cells) [%]	inhibition of growth at 30 µM (T. gondii RH tachyzoites) [%]	improved efficacy over NBZ022 (T. gondii RH tachyzoites; 30 μM screening, ortho-Cl versus NBZ022) [%]	anti-invasion rate [1] [%]
O=C(c1ccccc1Cl)c1nccc2c1[nH]c1ccccc12 [NBZ001]	> 30.00	24.2	31.3	–	–
O=C(c1ccccc1Br)c1nccc2c1[nH]c1ccccc12 [NBZ002]	> 30.00	27.2	42.2	–	–
O=C(c1ccccc1Br)c1nccc2c1[nH]c1ccc(Br)cc12 [NBZ003]	> 30.00	21.8	40.8	–	–
Cc1ccc2[nH]c3c(C(=O)c4ccccc4Cl)nccc3c2c1 [NBZ004]	> 30.00	5.35	43.8	–	–
Cc1ccc2[nH]c3c(C(=O)c4ccccc4Br)nccc3c2c1 [NBZ005]	> 30.00	43.9	33.9	–	–
Cc1ccc2[nH]c3c(C(=O)c4cccc(Br)c4)nccc3c2c1 [NBZ006]	> 30.00	13.1	33.3	–	–
Cc1ccc2[nH]c3c(C(=O)c4ccc(Br)cc4)nccc3c2c1 [NBZ007]	> 30.00	13.5	31.2	–	–
COc1ccc(C(=O)c2nccc3c2[nH]c2ccc(C)cc23)cc1 [NBZ008]	> 30.00	13.1	17.3	–	–
O=C(O)c1ccc2[nH]c3c(C(=O)c4ccccc4Cl)nccc3c2c1 [NBZ009]	> 30.00	15	32.1	–	–
O=C(O)c1ccc2[nH]c3c(C(=O)c4ccccc4Br)nccc3c2c1 [NBZ010]	> 30.00	16.6	45.2	–	–
O=C(O)c1ccc2[nH]c3c(C(=O)c4ccc(Br)cc4)nccc3c2c1 [NBZ011]	> 30.00	3.88	> 50	–	–
COc1ccc(C(=O)c2nccc3c2[nH]c2ccc(C(=O)O)cc23)cc1 [NBZ012]	> 30.00	7.66	21.9	–	–
NC(=O)c1ccc2[nH]c3c(C(=O)c4ccccc4Br)nccc3c2c1 [NBZ013]	> 30.00	11.2	34.5	–	–
CCCCNC(=O)c1ccc2[nH]c3c(C(=O)c4ccccc4Br)nccc3c2c1 [NBZ014]	> 30.00	19.7	2.09	–	–
O=C(NC1CCCCC1)c1ccc2[nH]c3c(C(=O)c4ccccc4Br)nccc3c2c1 [NBZ015]	> 30.00	3.68	37.1	–	–
O=C(c1ccccc1Cl)c1nccc2c1[nH]c1ccc(C(=O)N3CCOCC3)cc12 [NBZ016]	> 30.00	10.5	37.4	–	–
O=C(NCc1ccco1)c1ccc2[nH]c3c(C(=O)c4ccccc4Br)nccc3c2c1 [NBZ017]	> 30.00	10.8	43.4	–	–
CC(=O)OC[C@H]1O[C@@H](OC(C)=O)[C@H](NC(=O)c2ccc3[nH]c4c(C(=O)c5ccccc5Br)nccc4c3c2)[C@@H](OC(C)=O)[C@@H]1OC(C)=O [NBZ019]	> 30.00	9.56	35.9	–	–

SMILES	Cytotoxicity (Vero cells) [µM]	inhibition at 30 µM (Vero cells) [%]	inhibition of growth at 30 µM (T. gondii RH tachyzoites) [%]	improved efficacy over NBZ022 (T. gondii RH tachyzoites; 30 μM screening, ortho-Cl versus NBZ022) [%]	anti-invasion rate [1] [%]
O=C(Nc1cccc2ccccc12)c1ccc2[nH]c3c(C(=O)c4ccccc4Br)nccc3c2c1 [NBZ020]	> 30.00	8.15	7.22	–	–
O=C(Nc1ccccc1)c1ccc2[nH]c3c(C(=O)c4ccccc4Cl)nccc3c2c1 [NBZ021]	> 30.00	11.4	> 50	66.21	–
O=C(Nc1ccccc1)c1ccc2[nH]c3c(C(=O)c4ccccc4Br)nccc3c2c1 [NBZ022]	> 30.00	46.8	17.4	–	–
Cc1ccccc1NC(=O)c1ccc2[nH]c3c(C(=O)c4ccccc4Br)nccc3c2c1 [NBZ024]	> 30.00	24.4	3.45	–	–
Cc1ccc(NC(=O)c2ccc3[nH]c4c(C(=O)c5ccccc5Cl)nccc4c3c2)cc1 [NBZ025]	> 30.00	3.96	32.6	–	–
Cc1ccc(NC(=O)c2ccc3[nH]c4c(C(=O)c5ccccc5Br)nccc4c3c2)cc1 [NBZ026]	> 30.00	23.6	21.1	–	–
COc1ccccc1NC(=O)c1ccc2[nH]c3c(C(=O)c4ccccc4Cl)nccc3c2c1 [NBZ027, (2-Chlorobenzoyl)-N-(2-methoxyphenyl)-9H-pyrido[3,4-b]indole-6-carboxamide]	> 30.00	27.9	–	–	–
COc1ccc(NC(=O)c2ccc3[nH]c4c(C(=O)c5ccccc5Cl)nccc4c3c2)cc1 [NBZ028]	> 30.00	19.3	–	–	–
COc1ccc(NC(=O)c2ccc3[nH]c4c(C(=O)c5ccccc5Br)nccc4c3c2)cc1 [NBZ029]	> 30.00	27.9	30.3	–	–
CN(C)c1cccc(NC(=O)c2ccc3[nH]c4c(C(=O)c5ccccc5Cl)nccc4c3c2)c1 [NBZ030]	> 30.00	12.8	69.2	–	–
CN(C)c1cccc(NC(=O)c2ccc3[nH]c4c(C(=O)c5ccccc5Br)nccc4c3c2)c1 [NBZ031]	> 30.00	6.47	72.7	–	–
CN(C)c1ccc(NC(=O)c2ccc3[nH]c4c(C(=O)c5ccccc5Cl)nccc4c3c2)cc1 [NBZ032]	> 30.00	16	73	–	–
CN(C)c1ccc(NC(=O)c2ccc3[nH]c4c(C(=O)c5ccccc5Br)nccc4c3c2)cc1 [NBZ033]	> 30.00	11.2	14.3	–	–
O=C(Nc1cccc2ccccc12)c1ccc2[nH]c3c4[n+](ccc3c2c1)-c1ccccc1C4=O [NBZ034]	–	58.2	–	–	–
Cc1ccccc1NC(=O)c1ccc2[nH]c3c4[n+](ccc3c2c1)-c1ccccc1C4=O [NBZ036]	> 30.00	9.02	42.9	–	–
Cc1ccc(NC(=O)c2ccc3[nH]c4c5[n+](ccc4c3c2)-c2ccccc2C5=O)cc1.[Cl-] [NBZ037, 13-oxo-9-(p-tolylcarbamoyl)-12,13-dihydropyrido[1,2-a:3,4-b’]diindol-5-ium chloride]	> 30.00	29.7	–	–	–
CCc1nc(N)nc(N)c1-c1ccc(Cl)cc1 [pyrimethamine, reference compound]	–	–	–	–	26.77
